Results reported in patent US8551452B2, “Uridine dietary supplementation compliance methods and use thereof” (Massachusetts Institute of Technology, priority 2007, dated 2013).

Key:
[1] = 1H-MRS of the hippocampus (3T, PRESS), metabolite ratios to administered uridine; format: in vivo; details: brain cytidine-containing metabolites (CDP choline, cytidine, CMP, CDP, CTP, dCMP, dCDP, dCTP) as ratio of administered uridine, left and right hippocampus
Description: MRI and ^1H-MRS are performed on a 3T scanner. Anatomical MR images are obtained in the coronal plane using a 3D magnetization-prepared rapid gradient echo (MPRAGE) sequence. The sequence is acquired with a field of view of 16 cm, 32 slices with a 3-mm slice thickness, 256×256 matrix size 600-msec inversion time, repetition time (TR) of 8 msec, echo time (TE) of 3 msec, a bandwidth of 32 kHz, and 1 excitation. These images are used to select graphically the left and right hippocampus for solvent suppressed ^1H-MRS. Single-voxel ^1H-MRS of the hippocampus is performed using point-resolved spectroscopy (PRESS). […]
Analysis is performed on the main metabolites detected by MRS, that is, CDP choline, cytidine, cytidine 5′-monophosphate (CMP), cytidine 5′-diphosphate (CDP), cytidine 5′-triphosphate (CTP), deoxycytidine 5′-monophosphate (dCMP) , deoxycytidine 5′-diphosphate (dCDP), deoxycytidine 5′-triphosphate (dCTP), all expressed as a ratio of the administered uridine (Ur). When modeling the overall correlation between the administered uridine or uridine source and metabolite ratios, the measurements of metabolite ratios from the hippocampus on both sides of the brain of each subject analyzed by using repeated measures, with a compound symmetry covariance structure, to account for the within subject correlation.

[2] = Localized in vivo 1H MRS of parietal white matter and occipital gray matter (1.5T) for cytidine levels; details: brain cytidine-containing metabolites, brain water as internal reference
Description: All MRI scans and localized in vivo ^1H MRS procedures are performed on a system equipped with shielded gradients (GE 1.5T Signa; General Electric Medical Systems; Milwaukee, Wis.) from 9 PM to midnight. Spectroscopy is performed following a routine brain MRI analysis, and the T2-weighted images are used for localization of an area of interest. […]
The major metabolites detectable in ^1H MRS are CDP choline, cytidine, cytidine 5′-monophosphate (CMP), cytidine 5′-diphosphate (CDP), cytidine 5′-triphosphate (CTP), deoxycytidine 5′-monophosphate (dCMP), deoxycytidine 5′-diphosphate (dCDP), deoxycytidine 5′-triphosphate (dCTP). […] The areas under the peaks is measured by Lorenzian line-shape fitting. The absolute concentrations of CDP choline, cytidine, cytidine 5′-monophosphate (CMP), cytidine 5′-diphosphate (CDP), cytidine 5′-triphosphate (CTP), deoxycytidine 5′-monophosphate (dCMP), deoxycytidine 5′-diphosphate (dCDP), deoxycytidine 5′-triphosphate (dCTP) is calculated from the processed spectrum using the brain water as an internal reference. All concentrations are expressed as millimoles per weight of uridine taken. The reference brain water signals used is fixed in the PWM and in the OGM, as calculated.

[3] = Localized 13C MRS measurement of in vivo 13C cytidine in brain (9.4 T); details: in vivo 13C brain cytidine content, external reference method
Description: All in vivo MRS studies are performed in a horizontal 9.4-T/31-cm magnet (Magnex Scientific, UK) with an 11-cm-diameter gradient coil capable of switching to 300 mT/m in 500 μs, interfaced with an INOVA console (Varian Inc., Calif., USA). A quadrature ^1H radiofrequency (RF) 14-mm-diameter coil and a linear polarized, three-turn 11-mm-diameter ^13C RF coil are used as the transceiver. A sphere containing 99% ^13C-enriched glucose (Glu) is located at the center of the ^13C coil as an external reference, and the coil is placed on the subject's head. Fast Automatic Shimming Technique by Mapping Along Projections (FASTMAP) shimming with echo-planar imaging (EPI) readout is applied to adjust B0 field homogeneity in a initially nominal ˜440 μL volume of interest (VOI). The Single-shot Inversion Recovery based Non-Echo (SIRENE) sequence is applied for 3D localization with optimized outer volume suppression to ensure elimination of signals from noncerebral tissue, and bilevel WALTZ-16 RF pulses are applied at the water frequency for generation of a nuclear Overhauser effect (NOE) and for decoupling during acquisition.
Twelve 64-scan localized ^13C MR spectra (repetition time (TR)=1 s) acquired and are summed, apodized by 20-Hz exponential line-broadening, zero-filled, and Fourier transformed. […] In vivo ^13C brain cytidine content ([^13C-Cyt]invivo) is calculated.

Measured: increase in metabolite ratio as a function of administered uridine or uridine source

O=c1ccn([C@@H]2O[C@H](CO)[C@@H](O)[C@H]2O)c(=O)[nH]1 [uridine]
direct correlation: all assays above
